Calls of active or inactive are those of the source. No rule for the calls is given here.
System: CCRIS mutagenicity, Ames/micronucleus/aberration tests
Assay: CCRIS mutagenicity studies
[1] = Test System: AMES SALMONELLA TYPHIMURIUM, Strain/Indicator: TA98, Metabolic Activation: NONE, Method: STANDARD PLATE
[2] = Test System: AMES SALMONELLA TYPHIMURIUM, Strain/Indicator: TA98, Metabolic Activation: RAT LIVER S-9, AROCLOR 1254, Method: STANDARD PLATE
[3] = Test System: AMES SALMONELLA TYPHIMURIUM, Strain/Indicator: TA100, Metabolic Activation: NONE, Method: STANDARD PLATE
[4] = Test System: AMES SALMONELLA TYPHIMURIUM, Strain/Indicator: TA100, Metabolic Activation: RAT LIVER S-9, AROCLOR 1254, Method: STANDARD PLATE
[5] = Test System: AMES SALMONELLA TYPHIMURIUM, Strain/Indicator: TA1535, Metabolic Activation: NONE, Method: STANDARD PLATE
[6] = Test System: AMES SALMONELLA TYPHIMURIUM, Strain/Indicator: TA1537, Metabolic Activation: NONE, Method: STANDARD PLATE
[7] = Test System: AMES SALMONELLA TYPHIMURIUM, Strain/Indicator: TA1538, Metabolic Activation: NONE, Method: STANDARD PLATE
[8] = Test System: AMES SALMONELLA TYPHIMURIUM, Strain/Indicator: TA100, Metabolic Activation: NONE, Method: PREINCUBATION

## C[Si](Cl)(Cl)Cl
[1]
  mutagenic call: inactive; negative
[2]
  mutagenic call: inactive; negative
[3]
  mutagenic call: inactive; negative
[4]
  mutagenic call: inactive; negative
[5]
  mutagenic call: inactive; negative
Test System: AMES SALMONELLA TYPHIMURIUM, Strain/Indicator: TA1535, Metabolic Activation: RAT LIVER S-9, AROCLOR 1254, Method: STANDARD PLATE
  mutagenic call: inactive; negative
[6]
  mutagenic call: inactive; negative
Test System: AMES SALMONELLA TYPHIMURIUM, Strain/Indicator: TA1537, Metabolic Activation: RAT LIVER S-9, AROCLOR 1254, Method: STANDARD PLATE
  mutagenic call: inactive; negative
[7]
  mutagenic call: inactive; negative
Test System: AMES SALMONELLA TYPHIMURIUM, Strain/Indicator: TA1538, Metabolic Activation: RAT LIVER S-9, AROCLOR 1254, Method: STANDARD PLATE
  mutagenic call: inactive; negative
Test System: E. COLI, Strain/Indicator: P3078 POLA, Metabolic Activation: NONE, Method: SPOT TEST
  mutagenic call: inactive; negative
Test System: E. COLI, Strain/Indicator: P3078 POLA, Metabolic Activation: RAT LIVER S-9, AROCLOR 1254, Method: SPOT TEST
  mutagenic call: inactive; negative
Test System: E. COLI, Strain/Indicator: W3110, Metabolic Activation: NONE, Method: SPOT TEST
  mutagenic call: inactive; negative
Test System: E. COLI, Strain/Indicator: W3110, Metabolic Activation: RAT LIVER S-9, AROCLOR 1254, Method: SPOT TEST
  mutagenic call: inactive; negative
Test System: MOUSE LYMPHOMA, Strain/Indicator: L5178Y (TK+/TK-), Metabolic Activation: NONE, Method: SUSPENSION/PLATE
  mutagenic call: inactive; negative
Test System: MOUSE LYMPHOMA, Strain/Indicator: L5178Y (TK+/TK-), Metabolic Activation: RAT, LIVER, S-9, Method: SUSPENSION/PLATE
  mutagenic call: inactive; negative

## OCC12OOC1(CO)c1ccccc1O2 (configuration not stated)
[8]
  mutagenic call: inactive; negative

## C[C@@H](CN=[N+]=[N-])c1ccccc1
[8]
  mutagenic call: inactive; negative
Test System: AMES SALMONELLA TYPHIMURIUM, Strain/Indicator: TA100, Metabolic Activation: RAT, LIVER, S-9, PCB, Method: PREINCUBATION
  mutagenic call: active; positive

## CC1=C(C(=O)Nc2ccccc2)SCCO1
Test System: AMES SALMONELLA TYPHIMURIUM, Strain/Indicator: TA97A, Metabolic Activation: NONE, Method: STANDARD PLATE
  mutagenic call: inactive; negative
Test System: AMES SALMONELLA TYPHIMURIUM, Strain/Indicator: TA97A, Metabolic Activation: PLANT, HOMOGENATE, S-14, Method: STANDARD PLATE
  mutagenic call: inactive; negative
Test System: AMES SALMONELLA TYPHIMURIUM, Strain/Indicator: TA97A, Metabolic Activation: S-9, Method: STANDARD PLATE
  mutagenic call: inactive; negative
[1]
  mutagenic call: inactive; negative
Test System: AMES SALMONELLA TYPHIMURIUM, Strain/Indicator: TA98, Metabolic Activation: PLANT, HOMOGENATE, S-14, Method: STANDARD PLATE
  mutagenic call: inactive; negative
Test System: AMES SALMONELLA TYPHIMURIUM, Strain/Indicator: TA98, Metabolic Activation: S-9, Method: STANDARD PLATE
  mutagenic call: inactive; negative
[3]
  mutagenic call: inactive; negative
Test System: AMES SALMONELLA TYPHIMURIUM, Strain/Indicator: TA100, Metabolic Activation: PLANT, HOMOGENATE, S-14, Method: STANDARD PLATE
  mutagenic call: inactive; negative
Test System: AMES SALMONELLA TYPHIMURIUM, Strain/Indicator: TA100, Metabolic Activation: S-9, Method: STANDARD PLATE
  mutagenic call: inactive; negative
[5]
  mutagenic call: inactive; negative
Test System: AMES SALMONELLA TYPHIMURIUM, Strain/Indicator: TA1535, Metabolic Activation: PLANT, HOMOGENATE, S-14, Method: STANDARD PLATE
  mutagenic call: inactive; negative
Test System: AMES SALMONELLA TYPHIMURIUM, Strain/Indicator: TA1535, Metabolic Activation: S-9, Method: STANDARD PLATE
  mutagenic call: inactive; negative

## CC(=O)c1cccc2c1OC1(C)OOC21C (configuration not stated)
[8]
  mutagenic call: active; positive

## O[C@H]1C=Cc2cccc3c2[C@@]1(O)c1ccccc1-3
Test System: AMES SALMONELLA TYPHIMURIUM, Strain/Indicator: TM677, Metabolic Activation: NONE, Method: PREINCUBATION
  mutagenic call: inactive; negative
Test System: AMES SALMONELLA TYPHIMURIUM, Strain/Indicator: TM677, Metabolic Activation: RAT, LIVER, POSTMITOCHONDRIAL SUPERNATANT, AROCLOR 1254, Method: PREINCUBATION
  mutagenic call: inactive; negative

## CCN(CC)CCCNC(=O)C(=O)N/N=C/c1ccc([N+](=O)[O-])o1
Test System: E. COLI, Strain/Indicator: WP2 UVRA, Metabolic Activation: NONE, Method: STANDARD PLATE
  mutagenic call: active; positive

## c1ccc2c(c1)oc1ccccc12
End Point: IN VITRO CHROMOSOMAL ABERRATIONS, Test System: CHINESE HAMSTER OVARY CELLS, Metabolic Activation: NONE
  mutagenic call: inactive; negative
End Point: IN VITRO CHROMOSOMAL ABERRATIONS, Test System: CHINESE HAMSTER OVARY CELLS, Metabolic Activation: RAT, LIVER, S-9, AROCLOR 1254
  mutagenic call: inactive; negative
Test System: AMES SALMONELLA TYPHIMURIUM, Strain/Indicator: TA98, Metabolic Activation: HAMSTER LIVER S-9, AROCLOR 1254, Method: STANDARD PLATE
  mutagenic call: inactive; negative
[1]
  mutagenic call: inactive; negative
[2]
  mutagenic call: inactive; negative
Test System: AMES SALMONELLA TYPHIMURIUM, Strain/Indicator: TA98, Metabolic Activation: RAT, LIVER, S-9, PHENOBARBITAL AND NAPHTHOFLAVONE, Method: STANDARD PLATE
  mutagenic call: inactive; negative
Test System: AMES SALMONELLA TYPHIMURIUM, Strain/Indicator: TA98, Metabolic Activation: S-9, PHENOBARBITAL AND 5,6-BENZOFLAVONE, Method: STANDARD PLATE
  mutagenic call: inactive; negative
Test System: AMES SALMONELLA TYPHIMURIUM, Strain/Indicator: TA100, Metabolic Activation: HAMSTER LIVER S-9, AROCLOR 1254, Method: STANDARD PLATE
  mutagenic call: inactive; negative
[3]
  mutagenic call: inactive; negative
[4]
  mutagenic call: inactive; negative
Test System: AMES SALMONELLA TYPHIMURIUM, Strain/Indicator: TA100, Metabolic Activation: RAT, LIVER, S-9, PHENOBARBITAL AND NAPHTHOFLAVONE, Method: STANDARD PLATE
  mutagenic call: inactive; negative
Test System: AMES SALMONELLA TYPHIMURIUM, Strain/Indicator: TA100, Metabolic Activation: S-9, PHENOBARBITAL AND 5,6-BENZOFLAVONE, Method: STANDARD PLATE
  mutagenic call: inactive; negative

## CCCCOc1ccc2nc3cc(Cl)ccc3c(NCCCN(CC)CCCl)c2n1
[1]
  mutagenic call: active; positive
[3]
  mutagenic call: inactive; negative
[5]
  mutagenic call: inactive; negative
Test System: AMES SALMONELLA TYPHIMURIUM, Strain/Indicator: TA1536, Metabolic Activation: NONE, Method: STANDARD PLATE
  mutagenic call: active; positive
[6]
  mutagenic call: active; positive
[7]
  mutagenic call: active; positive

## CCC12OC1(C(=O)OC)C(=O)OC2C (configuration not stated)
Test System: AMES SALMONELLA TYPHIMURIUM, Strain/Indicator: TA98, Metabolic Activation: NONE, Method: DISK ASSAY
  mutagenic call: inactive; negative
[1]
  mutagenic call: inactive; negative
Test System: AMES SALMONELLA TYPHIMURIUM, Strain/Indicator: TA98, Metabolic Activation: RAT, LIVER, S-9, AROCLOR 1254, Method: DISK ASSAY
  mutagenic call: inactive; negative
Test System: AMES SALMONELLA TYPHIMURIUM, Strain/Indicator: TA98, Metabolic Activation: RAT, LIVER, S-9, AROCLOR 1254, Method: STANDARD PLATE
  mutagenic call: active; positive
